From patent publication US8883827B2, “Azole derivatives as WTN pathway inhibitors” (Oslo University Hospital HF, priority 2009, dated 2014)

Experiments:
[1] = target: T1, MKK7β(h) (Homo sapiens, UniProt O14733); assay: Kinase screen; assay type: biochemical; conditions: 0.1% DMSO control = 100%
T1 construct: purchased Millipore (KinaseProfiler service)

[2] = tested on: SW480 cells; assay: Illumina microarray gene expression analysis; assay type: cell-based
Protocol: A microarray analysis using an Illumina® array was performed in triplicate to investigate differential gene expression in cells treated with a Wnt pathway inhibitor. […] In vitro transcription reactions were incubated overnight (14 hr). Labeled cRNA was hybridized to Illumina® Human-6 v3 BeadChips (Illumina, San Diego, Calif.) at 58° C. overnight, according to the Illumina® Whole-Genome Gene Expression Protocol for BeadStation (Doc. #11226030.rev.C, Illumina Inc.). The hybridized BeadChip was stained with streptavidin-Cy3 (Amersham™, PA43001) for visualization and scanned with an Illumina® BeadArray Reader. The scanned images were imported into BeadStudio 3.1.3.0 (Illumina Inc) for extraction and quality control. A criterion of 0.5-fold change in expression was applied to the analysis. […] A list of differentially expressed genes of interest is given below in tables 1 and 2. […] Many known Wnt target genes (column 3) were influenced in treated cells. Some genes were influenced that are also affected in Ls174T colorectal cancer cells expressing an inducible dominant negative form of TCF-4 (column 4) (van de Wetering et al., Mol. Cell. Biol. (2008) 28(8), p. 2732-44). Other influenced genes that are important for cell cycle control and other genes correlated to regulated canonical Wnt signaling are also shown. The degree of modulation (column 5) is an indication of the degree of change between the non-treated and compound No. 1 treated samples.

[3] = tested on: canonical Wnt signaling; assay: IC50 in STF/REN HEK293 cells, 50% Wnt3a-CM; assay type: cell-based; conditions: Homo sapiens; STF/REN HEK293, 50% Wnt3a-CM, 24 h
Outline: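 HEK293 cells carrying STF/REN reporters seeded at 80,000/well on poly-L-lysine; after 24 h, exposed 24 h to compound in 50% Wnt3a-conditioned medium. Firefly and Renilla luciferase measured by Dual-Glo; IC50 fitted to a Langmuir binding isotherm.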

[4] = target: T2, PI3 Kinase (p110b/p85a)(h) (Homo sapiens, UniProt P42338); assay: Kinase screen; assay type: biochemical; conditions: 0.1% DMSO control = 100%
T2 construct: purchased Millipore (KinaseProfiler service)
T2 sequence (P42338 whole entry): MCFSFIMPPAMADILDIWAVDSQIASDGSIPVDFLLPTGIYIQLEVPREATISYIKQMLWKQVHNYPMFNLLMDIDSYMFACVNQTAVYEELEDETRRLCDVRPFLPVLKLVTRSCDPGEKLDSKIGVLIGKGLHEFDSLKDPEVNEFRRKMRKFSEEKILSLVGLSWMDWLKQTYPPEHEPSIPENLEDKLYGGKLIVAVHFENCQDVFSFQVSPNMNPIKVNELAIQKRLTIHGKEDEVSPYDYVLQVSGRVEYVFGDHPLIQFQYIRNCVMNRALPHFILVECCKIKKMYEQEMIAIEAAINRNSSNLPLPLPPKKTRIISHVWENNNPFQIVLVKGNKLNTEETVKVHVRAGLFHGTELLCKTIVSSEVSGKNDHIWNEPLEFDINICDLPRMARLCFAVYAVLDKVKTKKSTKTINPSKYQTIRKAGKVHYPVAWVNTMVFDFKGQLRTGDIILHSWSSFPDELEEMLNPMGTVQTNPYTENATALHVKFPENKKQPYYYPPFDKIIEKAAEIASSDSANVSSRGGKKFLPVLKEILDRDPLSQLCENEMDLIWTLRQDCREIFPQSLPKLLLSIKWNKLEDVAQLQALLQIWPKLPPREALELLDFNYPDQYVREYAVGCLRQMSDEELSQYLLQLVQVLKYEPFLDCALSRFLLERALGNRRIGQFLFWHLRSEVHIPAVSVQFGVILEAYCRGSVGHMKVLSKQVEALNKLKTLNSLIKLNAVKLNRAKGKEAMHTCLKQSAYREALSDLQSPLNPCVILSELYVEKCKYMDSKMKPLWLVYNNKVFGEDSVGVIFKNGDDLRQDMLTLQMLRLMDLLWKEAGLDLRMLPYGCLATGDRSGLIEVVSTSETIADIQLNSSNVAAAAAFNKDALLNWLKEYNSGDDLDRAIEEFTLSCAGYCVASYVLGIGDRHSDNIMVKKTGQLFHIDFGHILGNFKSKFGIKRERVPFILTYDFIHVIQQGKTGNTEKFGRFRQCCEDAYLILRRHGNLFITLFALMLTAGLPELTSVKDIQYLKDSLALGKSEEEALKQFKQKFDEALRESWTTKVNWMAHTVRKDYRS
T2 sequence (P27986 whole entry partner): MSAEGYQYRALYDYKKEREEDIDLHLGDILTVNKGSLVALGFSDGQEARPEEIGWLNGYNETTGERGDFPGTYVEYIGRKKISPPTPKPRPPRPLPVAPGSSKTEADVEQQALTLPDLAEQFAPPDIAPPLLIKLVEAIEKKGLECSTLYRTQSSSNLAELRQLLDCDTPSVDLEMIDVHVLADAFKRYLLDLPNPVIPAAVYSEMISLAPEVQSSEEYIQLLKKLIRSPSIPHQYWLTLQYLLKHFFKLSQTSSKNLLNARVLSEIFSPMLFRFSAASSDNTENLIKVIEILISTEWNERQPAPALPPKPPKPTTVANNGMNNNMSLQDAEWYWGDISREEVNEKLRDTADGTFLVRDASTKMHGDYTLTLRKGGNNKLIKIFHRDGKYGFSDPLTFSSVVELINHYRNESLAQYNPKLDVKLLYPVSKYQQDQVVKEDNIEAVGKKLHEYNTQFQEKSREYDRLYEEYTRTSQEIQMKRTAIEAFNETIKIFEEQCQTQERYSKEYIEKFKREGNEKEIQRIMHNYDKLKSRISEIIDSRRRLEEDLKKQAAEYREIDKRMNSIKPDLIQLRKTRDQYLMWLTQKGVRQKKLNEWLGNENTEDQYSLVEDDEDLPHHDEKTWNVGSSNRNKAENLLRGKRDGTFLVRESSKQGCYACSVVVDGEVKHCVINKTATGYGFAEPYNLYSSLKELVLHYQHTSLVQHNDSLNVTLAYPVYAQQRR

[5] = target: T3, PKG1α(h) (Homo sapiens, UniProt Q13976); assay: Kinase screen; assay type: biochemical; conditions: 0.1% DMSO control = 100%
T3 construct: purchased Millipore (KinaseProfiler service)
T3 sequence (Q13976 whole entry): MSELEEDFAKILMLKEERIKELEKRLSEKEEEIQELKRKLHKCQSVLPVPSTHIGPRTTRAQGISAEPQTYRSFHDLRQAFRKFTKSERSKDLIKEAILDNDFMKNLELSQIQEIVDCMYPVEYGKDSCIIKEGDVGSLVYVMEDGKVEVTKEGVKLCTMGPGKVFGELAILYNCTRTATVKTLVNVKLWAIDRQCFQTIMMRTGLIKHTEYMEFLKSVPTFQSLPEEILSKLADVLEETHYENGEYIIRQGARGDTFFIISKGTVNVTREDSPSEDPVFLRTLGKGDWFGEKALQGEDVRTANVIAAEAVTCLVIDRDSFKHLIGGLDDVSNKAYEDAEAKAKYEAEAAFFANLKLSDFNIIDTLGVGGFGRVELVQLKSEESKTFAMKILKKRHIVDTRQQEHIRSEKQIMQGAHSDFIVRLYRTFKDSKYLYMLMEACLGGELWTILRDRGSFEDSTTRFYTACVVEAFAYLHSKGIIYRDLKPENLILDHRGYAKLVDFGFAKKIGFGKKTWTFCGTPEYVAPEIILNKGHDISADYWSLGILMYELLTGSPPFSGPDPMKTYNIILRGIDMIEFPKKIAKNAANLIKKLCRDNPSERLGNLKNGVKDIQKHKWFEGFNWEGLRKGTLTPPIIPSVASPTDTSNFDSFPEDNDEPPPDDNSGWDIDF

[6] = target: T4, EGFR(h) (Homo sapiens, UniProt P00533); assay: Kinase screen; assay type: biochemical; conditions: 0.1% DMSO control = 100%
T4 construct: purchased Millipore (KinaseProfiler service)

[7] = target: T5, GSK3β(h) (Homo sapiens, UniProt P49841); assay: Kinase screen; assay type: biochemical; conditions: 0.1% DMSO control = 100%
T5 construct: purchased Millipore (KinaseProfiler service)
T5 sequence (P49841 whole entry): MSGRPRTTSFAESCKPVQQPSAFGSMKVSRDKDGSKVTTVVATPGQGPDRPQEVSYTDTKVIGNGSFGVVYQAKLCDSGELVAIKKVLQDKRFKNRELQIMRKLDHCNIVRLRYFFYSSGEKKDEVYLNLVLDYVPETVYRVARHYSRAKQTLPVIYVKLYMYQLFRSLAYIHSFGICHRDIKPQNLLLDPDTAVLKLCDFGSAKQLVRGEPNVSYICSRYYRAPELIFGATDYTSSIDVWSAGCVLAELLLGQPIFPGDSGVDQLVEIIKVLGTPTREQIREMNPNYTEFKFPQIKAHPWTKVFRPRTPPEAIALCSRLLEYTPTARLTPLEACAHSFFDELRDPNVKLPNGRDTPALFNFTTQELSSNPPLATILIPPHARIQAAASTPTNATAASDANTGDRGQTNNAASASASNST

[8] = target: T6, CHK1(h) (Homo sapiens, UniProt O14757); assay: Kinase screen; assay type: biochemical; conditions: 0.1% DMSO control = 100%
T6 construct: purchased Millipore (KinaseProfiler service)
T6 sequence (O14757 whole entry): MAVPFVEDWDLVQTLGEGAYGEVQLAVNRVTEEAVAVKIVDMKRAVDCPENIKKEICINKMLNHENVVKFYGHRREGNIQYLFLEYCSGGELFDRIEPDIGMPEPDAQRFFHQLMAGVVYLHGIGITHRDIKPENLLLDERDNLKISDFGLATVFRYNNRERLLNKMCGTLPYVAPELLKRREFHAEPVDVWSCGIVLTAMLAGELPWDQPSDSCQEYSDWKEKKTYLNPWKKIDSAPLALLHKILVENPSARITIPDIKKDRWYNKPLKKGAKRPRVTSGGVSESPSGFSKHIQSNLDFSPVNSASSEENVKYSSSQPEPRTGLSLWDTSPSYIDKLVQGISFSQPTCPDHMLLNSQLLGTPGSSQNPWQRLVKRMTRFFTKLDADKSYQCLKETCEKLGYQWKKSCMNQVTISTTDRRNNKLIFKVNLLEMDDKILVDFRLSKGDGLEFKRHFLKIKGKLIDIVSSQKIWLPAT

[9] = target: T7, MEK1(h) (Homo sapiens, UniProt Q02750); assay: Kinase screen; assay type: biochemical; conditions: 0.1% DMSO control = 100%
T7 construct: purchased Millipore (KinaseProfiler service)
T7 sequence (Q02750 whole entry): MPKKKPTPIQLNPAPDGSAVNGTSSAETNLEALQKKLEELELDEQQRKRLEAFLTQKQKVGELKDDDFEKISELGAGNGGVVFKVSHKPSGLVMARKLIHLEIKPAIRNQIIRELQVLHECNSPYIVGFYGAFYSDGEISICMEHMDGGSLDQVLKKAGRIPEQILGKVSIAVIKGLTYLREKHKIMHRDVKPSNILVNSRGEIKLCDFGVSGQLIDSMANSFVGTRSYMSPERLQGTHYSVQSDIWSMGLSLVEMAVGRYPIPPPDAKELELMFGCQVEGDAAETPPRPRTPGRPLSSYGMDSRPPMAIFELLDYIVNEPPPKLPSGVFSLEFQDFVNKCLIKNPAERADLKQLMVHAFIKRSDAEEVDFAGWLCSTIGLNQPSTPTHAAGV

[10] = target: T8, CDK9/cyclin T1(h) (Homo sapiens, UniProt P50750); assay: Kinase screen; assay type: biochemical; conditions: 0.1% DMSO control = 100%
T8 construct: purchased Millipore (KinaseProfiler service)

[11] = target: T9, CK1γ1(h) (Homo sapiens, UniProt Q9HCP0); assay: Kinase screen; assay type: biochemical; conditions: 0.1% DMSO control = 100%
T9 construct: purchased Millipore (KinaseProfiler service)
T9 sequence (Q9HCP0 whole entry): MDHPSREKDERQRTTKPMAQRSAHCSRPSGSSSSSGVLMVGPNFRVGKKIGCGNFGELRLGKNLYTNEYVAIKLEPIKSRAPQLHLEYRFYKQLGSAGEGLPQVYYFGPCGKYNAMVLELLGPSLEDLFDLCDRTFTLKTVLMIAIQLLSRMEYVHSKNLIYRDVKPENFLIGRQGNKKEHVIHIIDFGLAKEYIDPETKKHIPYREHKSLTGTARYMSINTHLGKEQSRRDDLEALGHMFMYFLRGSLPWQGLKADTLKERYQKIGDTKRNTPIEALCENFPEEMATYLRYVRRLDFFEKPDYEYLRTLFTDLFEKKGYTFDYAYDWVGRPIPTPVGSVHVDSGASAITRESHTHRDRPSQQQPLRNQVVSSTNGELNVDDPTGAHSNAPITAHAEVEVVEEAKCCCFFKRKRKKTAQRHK

T1 sequence (O14733 whole entry): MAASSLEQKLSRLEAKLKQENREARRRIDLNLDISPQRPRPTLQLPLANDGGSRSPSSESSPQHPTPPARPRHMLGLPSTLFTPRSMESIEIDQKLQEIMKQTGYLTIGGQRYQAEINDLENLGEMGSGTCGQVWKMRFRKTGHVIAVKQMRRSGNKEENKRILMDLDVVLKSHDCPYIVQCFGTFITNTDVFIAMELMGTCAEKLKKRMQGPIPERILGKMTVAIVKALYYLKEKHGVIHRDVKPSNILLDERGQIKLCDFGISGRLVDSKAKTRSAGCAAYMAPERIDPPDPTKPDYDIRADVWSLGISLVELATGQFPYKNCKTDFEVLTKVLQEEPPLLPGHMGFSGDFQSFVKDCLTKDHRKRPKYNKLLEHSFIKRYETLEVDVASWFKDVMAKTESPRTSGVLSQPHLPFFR

## COc1ccc(-n2c(SCc3nc(-c4ccc(C)cc4)no3)nnc2-c2ccncc2)cc1 [Compound 1]
[1]
  activity at 10 µM: 90%
[2]; x at 10 μM and 25 μM
  Degree of modulation: CCAAT/enhancer binding protein (C/EBP), delta: − (moderate down-regulation (log^2 ratio of between −0.5 and −1.0))
  Degree of modulation: Kruppel-like factor 4 (gut): + (moderate up-regulation (log^2 ratio of between 0.5 and 1.0))
  Degree of modulation: Kruppel-like factor 6: ++ (strong up-regulation (log^2 ratio of between 1.0 and 1.5))
  Degree of modulation: LY6/PLAUR domain containing 5: −−− (very strong down-regulation (log^2 ratio of between −1.5 and −2))
  Degree of modulation: LY6/PLAUR domain containing 6B: ++ (strong up-regulation (log^2 ratio of between 1.0 and 1.5))
  Degree of modulation: SPANXA1: −−− (very strong down-regulation (log^2 ratio of between −1.5 and −2))
  Degree of modulation: SPANXB2: −−− (very strong down-regulation (log^2 ratio of between −1.5 and −2))
  Degree of modulation: SPANXC: −−− (very strong down-regulation (log^2 ratio of between −1.5 and −2))
  Degree of modulation: SPANXE: −−− (very strong down-regulation (log^2 ratio of between −1.5 and −2))
  Degree of modulation: SRY (sex determining region Y)-box 18: − (moderate down-regulation (log^2 ratio of between −0.5 and −1.0))
  Degree of modulation: TEA domain family member 4: − (moderate down-regulation (log^2 ratio of between −0.5 and −1.0))
  Degree of modulation: WNT1 inducible signaling pathway protein 3: + (moderate up-regulation (log^2 ratio of between 0.5 and 1.0))
  Degree of modulation: alkaline phosphatase, liver/bone/kidney: − (moderate down-regulation (log^2 ratio of between −0.5 and −1.0))
  Degree of modulation: axin 2: − (moderate down-regulation (log^2 ratio of between −0.5 and −1.0))
  Degree of modulation: dickkopf homolog 1 (Xenopus laevis): −− (strong down-regulation (log^2 ratio of between −1.0 and −1.5))
  Degree of modulation: frizzled homolog 4 (Drosophila): − (moderate down-regulation (log^2 ratio of between −0.5 and −1.0))
  Degree of modulation: homeobox B2: − (moderate down-regulation (log^2 ratio of between −0.5 and −1.0))
  Degree of modulation: homeobox B5: − (moderate down-regulation (log^2 ratio of between −0.5 and −1.0))
  Degree of modulation: homeobox B7: − (moderate down-regulation (log^2 ratio of between −0.5 and −1.0))
  Degree of modulation: inhibitor of DNA binding 2, dominant negative helix-loop-helix protein: −− (strong down-regulation (log^2 ratio of between −1.0 and −1.5))
  Degree of modulation: mitogen-activated protein kinase kinase 3: + (moderate up-regulation (log^2 ratio of between 0.5 and 1.0))
  Degree of modulation: naked cuticle homolog 1 (Drosophila): − (moderate down-regulation (log^2 ratio of between −0.5 and −1.0))
  Degree of modulation: peroxisome proliferator-activated receptor gamma: ++ (strong up-regulation (log^2 ratio of between 1.0 and 1.5))
  Degree of modulation: prickle homolog 2 (Drosophila): − (moderate down-regulation (log^2 ratio of between −0.5 and −1.0))
[2]; x at 10 μM only
  Degree of modulation: FYN oncogene related to SRC, FGR, YES: + (moderate up-regulation (log^2 ratio of between 0.5 and 1.0))
  Degree of modulation: T-cell lymphoma invasion and metastasis 1: + (moderate up-regulation (log^2 ratio of between 0.5 and 1.0))
  Degree of modulation: catenin (cadherin-associated protein), alpha-like 1: − (moderate down-regulation (log^2 ratio of between −0.5 and −1.0))
  Degree of modulation: gastrin: − (moderate down-regulation (log^2 ratio of between −0.5 and −1.0))
  Degree of modulation: low density lipoprotein receptor-related protein 5: + (moderate up-regulation (log^2 ratio of between 0.5 and 1.0))
  Degree of modulation: mitogen-activated protein kinase kinase kinase 1: + (moderate up-regulation (log^2 ratio of between 0.5 and 1.0))
  Degree of modulation: notum pectinacetylesterase homolog (Drosophila): ++ (strong up-regulation (log^2 ratio of between 1.0 and 1.5))
  Degree of modulation: secreted frizzled-related protein 5: + (moderate up-regulation (log^2 ratio of between 0.5 and 1.0))
  Degree of modulation: slowmo homolog 1 (Drosophila): − (moderate down-regulation (log^2 ratio of between −0.5 and −1.0))
  Degree of modulation: transmembrane 4 L six family member 5: ++ (strong up-regulation (log^2 ratio of between 1.0 and 1.5))
[2]; x at 25 μM only
  Degree of modulation: A kinase (PRKA) anchor protein 1: + (moderate up-regulation (log^2 ratio of between 0.5 and 1.0))
  Degree of modulation: CD44 molecule (Indian blood group): + (moderate up-regulation (log^2 ratio of between 0.5 and 1.0))
  Degree of modulation: FOS-like antigen 1: + (moderate up-regulation (log^2 ratio of between 0.5 and 1.0))
  Degree of modulation: PDZ and LIM domain 1: − (moderate down-regulation (log^2 ratio of between −0.5 and −1.0))
  Degree of modulation: Sp5 transcription factor: − (moderate down-regulation (log^2 ratio of between −0.5 and −1.0))
  Degree of modulation: adenomatosis polyposis coli down-regulated 1: −− (strong down-regulation (log^2 ratio of between −1.0 and −1.5))
  Degree of modulation: baculoviral IAP repeat-containing 5: − (moderate down-regulation (log^2 ratio of between −0.5 and −1.0))
  Degree of modulation: bone morphogenetic protein 1: + (moderate up-regulation (log^2 ratio of between 0.5 and 1.0))
  Degree of modulation: bone morphogenetic protein 7: − (moderate down-regulation (log^2 ratio of between −0.5 and −1.0))
  Degree of modulation: c-abl oncogene 1, receptor tyrosine kinase: − (moderate down-regulation (log^2 ratio of between −0.5 and −1.0))
  Degree of modulation: cell division cycle 25 homolog C (S. pombe): − (moderate down-regulation (log^2 ratio of between −0.5 and −1.0))
  Degree of modulation: cell division cycle associated 8: − (moderate down-regulation (log^2 ratio of between −0.5 and −1.0))
  Degree of modulation: cyclin B2: − (moderate down-regulation (log^2 ratio of between −0.5 and −1.0))
  Degree of modulation: cyclin-dependent kinase 8: − (moderate down-regulation (log^2 ratio of between −0.5 and −1.0))
  Degree of modulation: cyclin-dependent kinase inhibitor 1B (p27, Kip1): − (moderate down-regulation (log^2 ratio of between −0.5 and −1.0))
  Degree of modulation: cysteine-rich, angiogenic inducer, 61: −−− (very strong down-regulation (log^2 ratio of between −1.5 and −2))
  Degree of modulation: disabled homolog 2, mitogen-responsive phosphoprotein (Drosophila): − (moderate down-regulation (log^2 ratio of between −0.5 and −1.0))
  Degree of modulation: dynein, axonemal, heavy chain 3: − (moderate down-regulation (log^2 ratio of between −0.5 and −1.0))
  Degree of modulation: dynein, axonemal, heavy chain 5: + (moderate up-regulation (log^2 ratio of between 0.5 and 1.0))
  Degree of modulation: dynein, light chain, LC8-type 2: − (moderate down-regulation (log^2 ratio of between −0.5 and −1.0))
  Degree of modulation: dynein, light chain, roadblock-type 1: − (moderate down-regulation (log^2 ratio of between −0.5 and −1.0))
  Degree of modulation: ephrin-A4: − (moderate down-regulation (log^2 ratio of between −0.5 and −1.0))
  Degree of modulation: ephrin-B2: ++ (strong up-regulation (log^2 ratio of between 1.0 and 1.5))
  Degree of modulation: epidermal growth factor receptor (erythroblastic leukemia viral (v-erb-b) oncogene homolog, avian): + (moderate up-regulation (log^2 ratio of between 0.5 and 1.0))
  Degree of modulation: ets variant gene 3: −− (strong down-regulation (log^2 ratio of between −1.0 and −1.5))
  Degree of modulation: fibroblast growth factor 20: − (moderate down-regulation (log^2 ratio of between −0.5 and −1.0))
  Degree of modulation: forkhead box F1: + (moderate up-regulation (log^2 ratio of between 0.5 and 1.0))
  Degree of modulation: forkhead box M1: − (moderate down-regulation (log^2 ratio of between −0.5 and −1.0))
  Degree of modulation: frizzled homolog 2 (Drosophila): −− (strong down-regulation (log^2 ratio of between −1.0 and −1.5))
  Degree of modulation: interleukin 8: ++ (strong up-regulation (log^2 ratio of between 1.0 and 1.5))
  Degree of modulation: low density lipoprotein receptor-related protein 5-like: + (moderate up-regulation (log^2 ratio of between 0.5 and 1.0))
  Degree of modulation: matrix metallopeptidase 7 (matrilysin, uterine): − (moderate down-regulation (log^2 ratio of between −0.5 and −1.0))
  Degree of modulation: met proto-oncogene (hepatocyte growth factor receptor): + (moderate up-regulation (log^2 ratio of between 0.5 and 1.0))
  Degree of modulation: mitogen-activated protein kinase kinase kinase kinase 1: − (moderate down-regulation (log^2 ratio of between −0.5 and −1.0))
  Degree of modulation: nitric oxide synthase 3 (endothelial cell): +++ (very strong up-regulation (log^2 ratio of between 1.5 and 2))
  Degree of modulation: origin recognition complex, subunit 1-like (yeast): − (moderate down-regulation (log^2 ratio of between −0.5 and −1.0))
  Degree of modulation: p53 and DNA damage regulated 1: − (moderate down-regulation (log^2 ratio of between −0.5 and −1.0))
  Degree of modulation: paired box 6: − (moderate down-regulation (log^2 ratio of between −0.5 and −1.0))
  Degree of modulation: paired related homeobox 2: − (moderate down-regulation (log^2 ratio of between −0.5 and −1.0))
  Degree of modulation: patched homolog 1 (Drosophila): − (moderate down-regulation (log^2 ratio of between −0.5 and −1.0))
  Degree of modulation: pituitary tumor-transforming 1: − (moderate down-regulation (log^2 ratio of between −0.5 and −1.0))
  Degree of modulation: plasminogen activator, urokinase: + (moderate up-regulation (log^2 ratio of between 0.5 and 1.0))
  Degree of modulation: plasminogen activator, urokinase receptor: + (moderate up-regulation (log^2 ratio of between 0.5 and 1.0))
  Degree of modulation: runt-related transcription factor 2: − (moderate down-regulation (log^2 ratio of between −0.5 and −1.0))
  Degree of modulation: sal-like 4 (Drosophila): + (moderate up-regulation (log^2 ratio of between 0.5 and 1.0))
  Degree of modulation: sex comb on midleg-like 1 (Drosophila): − (moderate down-regulation (log^2 ratio of between −0.5 and −1.0))
  Degree of modulation: snail homolog 2 (Drosophila): ++ (strong up-regulation (log^2 ratio of between 1.0 and 1.5))
  Degree of modulation: topoisomerase (DNA) II alpha 170 kDa: − (moderate down-regulation (log^2 ratio of between −0.5 and −1.0))
  Degree of modulation: tumor necrosis factor receptor superfamily, member 19: − (moderate down-regulation (log^2 ratio of between −0.5 and −1.0))
[3]
  IC50: 1010 nM
[4]
  activity at 10 µM: 94%
[5]
  activity at 10 µM: 106%
[6]
  activity at 10 µM: 108%
[7]
  activity at 10 µM: 90%
[8]
  activity at 10 µM: 106%
[9]
  activity at 10 µM: 108%
[10]
  activity at 10 µM: 115%
[11]
  activity at 10 µM: 100%
